Test results: patent US20090169603A1, “Adhesive Pharmaceutical Preparation” (NITTO DENKO CORPORATION, priority 2005, published 2009)
Like-named read-outs stand apart in the source and are kept apart here. One block for each compound: values may come before it.

What was measured:
[1] = Measurement of viscosity at 40° C. (type E viscometer); type: physicochemical
Method: Viscosity of the drug is measured using a type E viscometer while keeping the drug at a predetermined temperature. According to the invention, when the viscosity of a drug at a predetermined temperature is from 0.05 to 100,000 mPa·s, the drug is liquid at the predetermined temperature. In addition, the “logPow” is an index which expresses hydrophilic property or hydrophobicity of the drug, and is a value measured on individual drugs in accordance with the method described in “OECD GUIDELINE FOR THE TESTING OF CHEMICALS 107, Adopted by the Council on 27 Jul. 1995, Partition Coefficient (n-octanol/water), Shake Flask Method)”, and the base of logarithm of logPow is 10.
In addition, the viscosity of a drug at 40° C. is measured using a type E viscometer while heating the drug at 40° C.
5. Measurement of Viscosity at 40° C.
Viscosity of drugs at 40° C. was measured using a type E viscometer (type E viscometer mfd. By Tokyo Keiki, VISCONIC Type ED).

[2] = Measurement of logPow (OECD 107, n-octanol/water, shake flask method); type: physicochemical
Method: In this case, the “drug which is liquid at room temperature or around room temperature” means a drug which is liquid at a temperature where the adhesive pharmaceutical preparation after its production is generally preserved, namely any temperature within a temperature range of from 1 to 40° C. Within such a temperature range, the drug has such a degree of fluidity that it can cause bleeding. Viscosity of the drug is measured using a type E viscometer while keeping the drug at a predetermined temperature. According to the invention, when the viscosity of a drug at a predetermined temperature is from 0.05 to 100,000 mPa·s, the drug is liquid at the predetermined temperature. In addition, the “logPow” is an index which expresses hydrophilic property or hydrophobicity of the drug, and is a value measured on individual drugs in accordance with the method described in “OECD GUIDELINE FOR THE TESTING OF CHEMICALS 107, Adopted by the Council on 27 Jul. 1995, Partition Coefficient (n-octanol/water), Shake Flask Method)”, and the base of logarithm of logPow is 10.
The “logPow” is obtained by a calculation after partitioning a drug into water layer and n-octanol layer and determining the drug concentration of each layer by an appropriate method, in accordance with the method described in the above-mentioned guideline. The quantitative determination of drugs is not particularly limited so long as it is a method in which its determinability was verified, for example, by verifying linearity of its calibration curve, but in general, an absorptiometry, a gas chromatography or a high performance liquid chromatography is used. […] In addition, when the drug is a dissociating substance, the logPow is measured while suppressing its dissociation in accordance with the guideline. That is, the logPow is measured using a buffer of appropriate pH as the water layer under a condition of a free acid or free base. When the drug is an acidic drug, a buffer having a pH value which is lower by a factor of 1 than the pKa value of the drug is used. When the drug is a basic drug, a buffer having a pH value which is higher by a factor of 1 than the pKa value of the drug is used.
In this connection, although the measurement range of logPow is generally set from −2 to 4 according to this guideline, the measurement range of logPow can be set to −2 to 5 by increasing the determination sensitivity by making use of high sensitivity analytical methods such as a high performance liquid chromatography.
LogPow was measured in accordance with the “OECD GUIDELINE FOR THE TESTING OF CHEMICALS 107, Adopted by the Council on 27th Jul. 1995, Partition Coefficient (n-Octanol/water), Shake Flask Method)”. Water layers, determination methods and results of the LogPow measurement at the time of the measurement of LogPow are shown in Table 3.

[3] = water layer pH 10 buffer, HPLC method

Compound: CCOCCn1c(N2CCCN(C)CC2)nc2ccccc21 [Emedastine free base, emedastine free base]
Viscosity [1]: 280 mPa·s
logD ([2]; n-octanol/water, water layer pH 10 buffer, HPLC method): 2.4
LogPow [2, 3]: base (2.4)
LogPow ([2]; water layer pH 10 buffer, HPLC method, listed as emedastine free base): 2.4

Compound: COc1ccc(CCN(C)CCCC(C#N)(c2cc(OC)c(OC)c(OC)c2)C(C)C)cc1OC (stereo not shown) [Gallopamil free base, gallopamil free base]
Viscosity [1]: 4500 mPa·s
Viscosity ([1]; listed as gallopamil): 4,500 mPa·s
LogPow [2, 3]: 4.8

Compound: CN(C/C=C/C#CC(C)(C)C)Cc1cccc2ccccc12 [Terbinafine free base]
Viscosity [1]: 280 mPa·s
logD ([2]; n-octanol/water, water layer pH 9.2 buffer, HPLC method): > 5
LogPow ([2]; water layer pH 9.2 buffer, HPLC method): base (>5.0)
LogPow ([2]; water layer pH 9.2 buffer, HPLC method, listed as terbinafine): > 5.0

Now from value to compound:

Viscosity [1]: 16 mPa·s
logP ([2]; n-octanol/water, water layer distilled water, HPLC method): 3.1
LogPow ([2]; water layer distilled water, HPLC method): Crotamiton (3.1)
LogPow ([2]; water layer distilled water, HPLC method, listed as crotamiton): 3.1
Compound: CC=CC(=O)N(CC)c1ccccc1C (mixture of isomers) [Crotamiton, crotamiton]

LogPow ([2]; water layer distilled water, titration method): −1.1
Compound: OCC(O)CO [Glycerol]
